Test results taken from ChEMBL document CHEMBL5291721, “A preclinical secondary pharmacology resource illuminates target-adverse drug reaction associations of marketed drugs” (Nat Commun, 2023).

Legend:
Bile salt export pump = Bile salt export pump (Homo sapiens, UniProt O95342); format: functional
Adenosine receptor A3 = biological target: T1, Adenosine receptor A3 (Homo sapiens, UniProt P0DMS8)
T1 sequence (P0DMS8 whole entry): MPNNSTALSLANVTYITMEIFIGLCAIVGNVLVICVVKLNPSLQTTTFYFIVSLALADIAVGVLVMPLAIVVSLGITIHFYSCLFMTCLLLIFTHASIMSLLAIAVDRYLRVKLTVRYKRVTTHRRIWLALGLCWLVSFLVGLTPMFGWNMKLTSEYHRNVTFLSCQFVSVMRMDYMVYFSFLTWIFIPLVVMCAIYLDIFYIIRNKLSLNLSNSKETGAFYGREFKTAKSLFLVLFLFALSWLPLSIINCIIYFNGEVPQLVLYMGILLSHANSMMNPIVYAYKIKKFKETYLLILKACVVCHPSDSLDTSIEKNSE

[1] = biological target: T2, Alpha-2A adrenergic receptor (Homo sapiens, UniProt P08913); format: functional, cell-based
T2 sequence (P08913 whole entry): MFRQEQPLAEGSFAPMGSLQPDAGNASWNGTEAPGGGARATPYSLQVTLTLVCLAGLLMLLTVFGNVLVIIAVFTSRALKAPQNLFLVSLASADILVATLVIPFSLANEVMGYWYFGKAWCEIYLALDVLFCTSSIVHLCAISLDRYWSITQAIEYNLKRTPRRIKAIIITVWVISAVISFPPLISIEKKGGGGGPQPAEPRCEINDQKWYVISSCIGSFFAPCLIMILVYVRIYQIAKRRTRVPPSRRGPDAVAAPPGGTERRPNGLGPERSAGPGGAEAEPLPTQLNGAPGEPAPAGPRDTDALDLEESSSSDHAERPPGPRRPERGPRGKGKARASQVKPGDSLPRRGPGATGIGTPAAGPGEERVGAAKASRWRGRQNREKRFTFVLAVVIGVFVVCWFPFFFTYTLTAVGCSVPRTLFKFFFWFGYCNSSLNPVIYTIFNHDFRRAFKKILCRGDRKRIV

[2] = biological target: T2, Alpha-2A adrenergic receptor; format: functional, cell-based; remark: listed apart in the source
[3] = biological target: T3, Muscarinic acetylcholine receptor M2 (Homo sapiens, UniProt P08172); format: functional, cell-based
T3 sequence (P08172 whole entry): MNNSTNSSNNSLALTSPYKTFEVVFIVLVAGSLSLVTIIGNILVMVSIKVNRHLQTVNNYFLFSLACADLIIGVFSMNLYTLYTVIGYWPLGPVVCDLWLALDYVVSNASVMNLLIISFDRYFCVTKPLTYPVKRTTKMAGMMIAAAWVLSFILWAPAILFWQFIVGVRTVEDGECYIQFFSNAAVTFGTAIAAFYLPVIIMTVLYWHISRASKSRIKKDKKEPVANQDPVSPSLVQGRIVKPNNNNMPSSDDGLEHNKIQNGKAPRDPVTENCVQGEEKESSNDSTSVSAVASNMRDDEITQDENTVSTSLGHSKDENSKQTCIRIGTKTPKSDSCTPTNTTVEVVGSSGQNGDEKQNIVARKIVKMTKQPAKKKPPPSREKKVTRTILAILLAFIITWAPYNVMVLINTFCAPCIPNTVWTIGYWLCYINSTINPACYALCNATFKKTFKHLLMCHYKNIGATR

D(1A) dopamine receptor = D(1A) dopamine receptor (Homo sapiens, UniProt P21728); format: functional, cell-based
D(1A) dopamine receptor, sequence (P21728 whole entry): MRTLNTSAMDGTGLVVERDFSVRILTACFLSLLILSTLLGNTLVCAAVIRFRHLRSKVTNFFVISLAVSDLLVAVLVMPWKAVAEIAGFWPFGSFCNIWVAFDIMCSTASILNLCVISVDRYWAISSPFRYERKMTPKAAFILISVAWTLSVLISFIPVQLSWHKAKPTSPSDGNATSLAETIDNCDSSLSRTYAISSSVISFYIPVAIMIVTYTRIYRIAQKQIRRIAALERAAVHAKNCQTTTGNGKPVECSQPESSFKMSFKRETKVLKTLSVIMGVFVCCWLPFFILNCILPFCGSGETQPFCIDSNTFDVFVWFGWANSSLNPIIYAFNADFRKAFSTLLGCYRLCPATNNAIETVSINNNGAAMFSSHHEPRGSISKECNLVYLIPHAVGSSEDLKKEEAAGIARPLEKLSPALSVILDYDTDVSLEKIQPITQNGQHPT

[4] = biological target: Gamma-aminobutyric acid receptor subunit alpha-1 (Rattus norvegicus, UniProt P62813); format: functional
[5] = biological target: 5-hydroxytryptamine receptor 2B (Homo sapiens, UniProt P41595); format: functional, cell-based
5-hydroxytryptamine receptor 2B, sequence (P41595 whole entry): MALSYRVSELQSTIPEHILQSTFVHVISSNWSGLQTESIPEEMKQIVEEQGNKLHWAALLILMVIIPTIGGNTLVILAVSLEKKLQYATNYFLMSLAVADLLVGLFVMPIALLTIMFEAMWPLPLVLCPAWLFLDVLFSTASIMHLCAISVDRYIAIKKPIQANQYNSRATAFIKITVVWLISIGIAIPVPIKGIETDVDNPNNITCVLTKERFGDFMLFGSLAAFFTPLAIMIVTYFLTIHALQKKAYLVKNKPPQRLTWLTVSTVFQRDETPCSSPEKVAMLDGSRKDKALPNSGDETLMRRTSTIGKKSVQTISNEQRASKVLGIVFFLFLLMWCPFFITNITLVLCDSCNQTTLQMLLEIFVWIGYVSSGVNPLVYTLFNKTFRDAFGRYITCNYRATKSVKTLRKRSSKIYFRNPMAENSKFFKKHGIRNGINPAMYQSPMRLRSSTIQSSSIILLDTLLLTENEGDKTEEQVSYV

[6] = biological target: T4, 5-hydroxytryptamine receptor 2C (Homo sapiens, UniProt P28335)
T4 sequence (P28335 whole entry): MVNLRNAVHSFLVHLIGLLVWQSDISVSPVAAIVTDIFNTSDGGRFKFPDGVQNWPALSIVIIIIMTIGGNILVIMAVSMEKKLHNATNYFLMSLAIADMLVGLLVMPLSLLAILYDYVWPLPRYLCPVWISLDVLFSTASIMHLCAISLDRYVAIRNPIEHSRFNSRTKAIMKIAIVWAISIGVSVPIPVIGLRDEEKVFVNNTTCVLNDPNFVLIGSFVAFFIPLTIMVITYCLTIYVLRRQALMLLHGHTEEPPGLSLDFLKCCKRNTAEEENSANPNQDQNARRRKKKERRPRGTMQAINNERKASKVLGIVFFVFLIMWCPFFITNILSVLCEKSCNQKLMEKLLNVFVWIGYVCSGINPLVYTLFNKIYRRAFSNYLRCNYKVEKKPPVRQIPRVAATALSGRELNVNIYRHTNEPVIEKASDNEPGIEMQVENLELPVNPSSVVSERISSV

Melanocortin receptor 3 = Melanocortin receptor 3 (Homo sapiens, UniProt P41968)
Melanocortin receptor 3, sequence (P41968 whole entry): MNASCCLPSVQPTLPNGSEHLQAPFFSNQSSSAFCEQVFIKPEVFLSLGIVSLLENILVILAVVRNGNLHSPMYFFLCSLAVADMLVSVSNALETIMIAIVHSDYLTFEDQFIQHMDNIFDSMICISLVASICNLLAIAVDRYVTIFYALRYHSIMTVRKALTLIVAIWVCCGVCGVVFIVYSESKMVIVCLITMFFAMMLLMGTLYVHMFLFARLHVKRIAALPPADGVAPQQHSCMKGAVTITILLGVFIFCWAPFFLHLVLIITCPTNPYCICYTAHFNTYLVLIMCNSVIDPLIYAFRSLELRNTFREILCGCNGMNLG

[7] = biological target: Delta-type opioid receptor (Homo sapiens, UniProt P41143)
Delta-type opioid receptor, sequence (P41143 whole entry): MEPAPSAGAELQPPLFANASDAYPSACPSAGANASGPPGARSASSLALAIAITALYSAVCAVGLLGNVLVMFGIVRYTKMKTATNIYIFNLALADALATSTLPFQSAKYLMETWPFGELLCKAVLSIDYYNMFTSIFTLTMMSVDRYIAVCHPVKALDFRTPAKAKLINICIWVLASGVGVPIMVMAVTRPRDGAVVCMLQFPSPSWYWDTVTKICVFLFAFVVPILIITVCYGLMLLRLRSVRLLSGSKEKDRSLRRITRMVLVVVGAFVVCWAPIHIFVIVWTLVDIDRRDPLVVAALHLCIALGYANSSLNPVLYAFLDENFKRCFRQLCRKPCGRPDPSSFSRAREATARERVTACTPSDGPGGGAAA

[8] = biological target: T5, Prostaglandin G/H synthase 1 (Rattus norvegicus, UniProt Q63921); format: functional
T5 sequence (Q63921 whole entry): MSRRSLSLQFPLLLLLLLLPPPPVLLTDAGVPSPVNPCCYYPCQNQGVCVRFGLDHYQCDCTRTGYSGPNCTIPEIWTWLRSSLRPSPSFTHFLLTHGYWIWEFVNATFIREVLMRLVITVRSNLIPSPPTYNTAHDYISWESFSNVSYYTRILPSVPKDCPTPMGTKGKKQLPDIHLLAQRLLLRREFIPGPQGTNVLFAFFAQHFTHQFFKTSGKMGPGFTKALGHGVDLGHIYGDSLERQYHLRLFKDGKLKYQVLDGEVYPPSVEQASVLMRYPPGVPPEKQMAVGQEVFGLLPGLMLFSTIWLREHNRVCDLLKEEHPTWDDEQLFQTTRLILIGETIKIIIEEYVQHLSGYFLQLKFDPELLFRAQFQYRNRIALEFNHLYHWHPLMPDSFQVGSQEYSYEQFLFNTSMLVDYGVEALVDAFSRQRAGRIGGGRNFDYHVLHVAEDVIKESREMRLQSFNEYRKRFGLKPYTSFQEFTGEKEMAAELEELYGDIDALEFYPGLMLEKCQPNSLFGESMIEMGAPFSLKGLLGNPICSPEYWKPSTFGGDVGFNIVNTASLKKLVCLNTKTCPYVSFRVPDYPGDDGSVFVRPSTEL

[9] = biological target: Sodium-dependent dopamine transporter (Homo sapiens, UniProt Q01959)
Sodium-dependent dopamine transporter, sequence (Q01959 whole entry): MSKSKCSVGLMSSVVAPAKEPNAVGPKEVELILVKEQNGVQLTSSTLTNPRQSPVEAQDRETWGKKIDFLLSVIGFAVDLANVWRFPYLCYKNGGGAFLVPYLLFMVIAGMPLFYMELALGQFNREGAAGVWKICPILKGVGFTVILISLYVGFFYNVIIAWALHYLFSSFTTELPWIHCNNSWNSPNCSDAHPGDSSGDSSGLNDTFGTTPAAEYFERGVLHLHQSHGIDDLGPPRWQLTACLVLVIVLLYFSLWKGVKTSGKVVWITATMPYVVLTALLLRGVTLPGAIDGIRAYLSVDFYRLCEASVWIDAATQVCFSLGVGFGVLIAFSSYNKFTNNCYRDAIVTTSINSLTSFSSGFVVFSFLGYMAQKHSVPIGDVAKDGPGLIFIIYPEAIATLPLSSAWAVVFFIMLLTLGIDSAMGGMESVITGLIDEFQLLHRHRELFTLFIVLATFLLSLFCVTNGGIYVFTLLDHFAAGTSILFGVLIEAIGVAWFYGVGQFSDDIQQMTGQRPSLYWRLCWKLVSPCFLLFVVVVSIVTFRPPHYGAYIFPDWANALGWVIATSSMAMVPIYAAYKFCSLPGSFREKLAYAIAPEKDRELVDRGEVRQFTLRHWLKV

[10] = biological target: Sodium-dependent noradrenaline transporter (Homo sapiens, UniProt P23975)
Sodium-dependent noradrenaline transporter, sequence (P23975 whole entry): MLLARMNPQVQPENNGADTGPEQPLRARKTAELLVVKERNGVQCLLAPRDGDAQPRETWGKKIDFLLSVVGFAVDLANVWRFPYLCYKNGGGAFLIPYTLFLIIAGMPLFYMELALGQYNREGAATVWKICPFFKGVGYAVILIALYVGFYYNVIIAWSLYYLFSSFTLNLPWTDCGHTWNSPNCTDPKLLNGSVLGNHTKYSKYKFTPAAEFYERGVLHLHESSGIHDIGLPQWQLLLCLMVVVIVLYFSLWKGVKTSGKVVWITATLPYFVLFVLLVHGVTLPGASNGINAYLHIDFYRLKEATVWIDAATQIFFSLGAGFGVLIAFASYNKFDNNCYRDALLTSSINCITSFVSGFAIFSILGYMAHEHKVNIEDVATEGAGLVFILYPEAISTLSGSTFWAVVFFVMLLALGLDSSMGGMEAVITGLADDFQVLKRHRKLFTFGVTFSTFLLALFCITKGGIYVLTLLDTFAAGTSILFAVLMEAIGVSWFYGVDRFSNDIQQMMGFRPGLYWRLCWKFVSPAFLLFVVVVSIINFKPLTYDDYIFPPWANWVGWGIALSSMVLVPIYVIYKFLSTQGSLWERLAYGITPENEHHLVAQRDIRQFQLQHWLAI

D(3) dopamine receptor = D(3) dopamine receptor (Homo sapiens, UniProt P35462)
D(3) dopamine receptor, sequence (P35462 whole entry): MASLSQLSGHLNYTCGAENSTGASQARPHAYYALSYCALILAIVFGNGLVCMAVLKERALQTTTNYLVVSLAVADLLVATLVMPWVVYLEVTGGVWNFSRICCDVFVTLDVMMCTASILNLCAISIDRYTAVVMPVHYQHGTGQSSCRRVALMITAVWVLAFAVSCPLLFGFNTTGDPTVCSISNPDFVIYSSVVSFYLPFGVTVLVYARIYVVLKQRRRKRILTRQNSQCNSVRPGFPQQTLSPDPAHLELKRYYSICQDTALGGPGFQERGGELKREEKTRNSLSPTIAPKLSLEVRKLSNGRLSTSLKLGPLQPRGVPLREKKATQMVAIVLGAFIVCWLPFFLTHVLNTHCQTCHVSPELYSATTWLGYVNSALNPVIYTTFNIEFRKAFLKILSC
Also: assay procedure not described here.

Bile salt export pump, sequence (O95342 whole entry): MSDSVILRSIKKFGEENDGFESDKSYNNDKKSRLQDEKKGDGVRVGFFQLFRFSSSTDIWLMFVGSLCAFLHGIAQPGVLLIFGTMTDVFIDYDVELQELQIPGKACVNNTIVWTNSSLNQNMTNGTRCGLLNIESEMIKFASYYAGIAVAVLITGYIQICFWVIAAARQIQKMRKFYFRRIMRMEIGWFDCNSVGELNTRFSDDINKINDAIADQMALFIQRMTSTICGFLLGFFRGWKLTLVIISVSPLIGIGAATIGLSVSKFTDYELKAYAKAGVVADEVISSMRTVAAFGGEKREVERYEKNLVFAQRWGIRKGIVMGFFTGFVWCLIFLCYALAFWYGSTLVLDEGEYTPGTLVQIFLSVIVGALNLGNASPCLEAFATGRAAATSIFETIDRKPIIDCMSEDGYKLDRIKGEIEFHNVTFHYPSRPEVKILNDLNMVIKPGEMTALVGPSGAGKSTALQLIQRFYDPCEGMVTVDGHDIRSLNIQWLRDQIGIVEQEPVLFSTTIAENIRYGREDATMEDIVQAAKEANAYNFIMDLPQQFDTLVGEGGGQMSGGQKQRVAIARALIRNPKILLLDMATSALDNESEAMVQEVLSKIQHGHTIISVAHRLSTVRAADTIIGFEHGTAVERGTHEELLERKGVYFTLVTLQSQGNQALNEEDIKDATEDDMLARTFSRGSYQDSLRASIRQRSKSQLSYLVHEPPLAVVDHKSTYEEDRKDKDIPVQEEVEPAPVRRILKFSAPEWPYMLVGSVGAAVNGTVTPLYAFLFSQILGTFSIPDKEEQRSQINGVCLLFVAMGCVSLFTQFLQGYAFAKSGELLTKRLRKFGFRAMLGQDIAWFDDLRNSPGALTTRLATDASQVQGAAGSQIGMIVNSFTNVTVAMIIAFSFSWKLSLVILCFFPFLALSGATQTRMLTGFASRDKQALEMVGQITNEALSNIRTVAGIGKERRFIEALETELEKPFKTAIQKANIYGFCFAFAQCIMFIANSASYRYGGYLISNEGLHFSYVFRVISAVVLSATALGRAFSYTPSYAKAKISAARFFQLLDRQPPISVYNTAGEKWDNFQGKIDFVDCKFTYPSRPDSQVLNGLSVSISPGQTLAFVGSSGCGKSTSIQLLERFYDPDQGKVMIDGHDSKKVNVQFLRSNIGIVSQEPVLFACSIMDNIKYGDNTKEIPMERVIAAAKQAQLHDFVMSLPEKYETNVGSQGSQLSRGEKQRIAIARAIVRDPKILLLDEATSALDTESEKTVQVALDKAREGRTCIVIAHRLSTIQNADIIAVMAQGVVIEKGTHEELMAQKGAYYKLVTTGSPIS

SMILES	AC50 (Bile salt export pump) [µM]	AC50 (Adenosine receptor A3) [µM]	AC50 [1] [µM]	AC50 [2] [µM]	AC50 [3] [µM]	AC50 (D(1A) dopamine receptor) [µM]	AC50 [4] [µM]	AC50 [5] [µM]	AC50 [6] [µM]	AC50 (Melanocortin receptor 3) [µM]	AC50 [7] [µM]	AC50 [8] [µM]	AC50 [9] [µM]	AC50 [10] [µM]	AC50 (D(3) dopamine receptor) [µM]
COc1ccccc1OCC(O)CN1CCN(CC(=O)Nc2c(C)cccc2C)CC1 (stereo not given) [RANOLAZINE]	> 300	> 30	> 30	7.7	> 30	> 30	> 30	> 30	> 30	> 30	> 30	> 30	> 30	> 30	18
Nc1nc(NC2CC2)c2ncn([C@H]3C=C[C@@H](CO)C3)c2n1 [ABACAVIR]	> 300	> 30	> 30	> 30	> 30	> 30	> 30	> 30	> 30	> 30	> 30	> 30	> 30	> 30	> 30
O=C1Nc2ccc(Cl)cc2[C@@](C#CC2CC2)(C(F)(F)F)O1 [EFAVIRENZ]	110	6	> 10	> 10	> 10	> 30	> 10	> 10	5.61	> 30	> 30	> 30	18	15	> 30
C[C@H]1CNCCc2ccc(Cl)cc21 [LORCASERIN]	> 300	> 30	> 30	7.2	> 30	> 30	> 30			> 30	> 30	> 30	> 30	14	> 30
Clc1ccc(C(c2ccccc2Cl)C(Cl)Cl)cc1 (stereo not given) [MITOTANE]	41	> 10	> 10	> 10	> 10	> 10	> 10	> 10	> 30	> 10	> 30	> 10	> 10	> 10	> 30
COCCCN1CCC(NC(=O)c2cc(Cl)c(N)c3c2OCC3)CC1 [PRUCALOPRIDE]	> 300	> 30	> 30	> 30	> 30	> 30	> 30	> 30	> 30	> 30	> 30	> 30	> 30	> 30	> 30
Cc1cn([C@H]2C[C@H](N=[N+]=[N-])[C@@H](CO)O2)c(=O)[nH]c1=O [ZIDOVUDINE]	> 300	> 30	> 10	> 10	> 10	> 10	> 10	> 10	> 30	> 30	> 30	> 30	> 10	> 10	> 10
NS(=O)(=O)Cc1noc2ccccc12 [ZONISAMIDE]	> 300	> 10	> 10	> 10	> 10	> 10	> 10	> 10	> 30	> 10	> 30	> 10	> 10	> 10	> 30
Cc1cn([C@H]2C=C[C@@H](CO)O2)c(=O)[nH]c1=O [STAVUDINE]	> 300	> 30	> 10	> 10	> 10	> 10	> 10	> 10	> 30	> 30	> 10	> 30	> 10	> 10	> 10
Cc1cccc(Nc2ccccc2C(=O)O)c1C [MEFENAMIC ACID]	150	> 10	> 10	> 10	> 10	> 10	> 10	> 10	> 30	> 10	> 30	0.26	> 10	> 10	> 30
CC(=O)NCCCS(=O)(=O)O [ACAMPROSATE]	> 300	> 30	> 30	> 30	> 30	> 30	> 30	> 30	> 30	> 30	> 30	> 30	> 30		> 30
Cc1nc([N+](=O)[O-])cn1-c1ccc([N+](=O)[O-])cc1 [NITREFAZOLE]	> 300	> 30	> 30	> 30	> 30	> 30	> 30	> 30	> 30	> 30	> 30	> 30	> 30		> 30
Cc1ccc(-c2cc(C(F)(F)F)nn2-c2ccc(S(N)(=O)=O)cc2)cc1 [CELECOXIB]	34	9.14	> 10	> 10	> 10	> 10	> 10	> 10	> 30	> 10	> 30		5.86	15.7	> 30
